{"source": "patent US20100261796A1", "about": "“Use of Novel Compounds for IBD Treatment” (Ferring B.V., priority 2005, published 2010)", "key": {"TNBS-induced colitis": {"test_system": "TNBS-induced colitis", "test": "TNBS colitis induction model", "type": "in vivo, C57Bl/6 mice", "method": "Animals were housed ten per cage and had free access to standard mouse chow and tap water. For colitis induction, C57Bl/6 mice were anesthetized for 90-120 minutes and received an intra-rectal administration of TNBS (40 μL, 150 mg/kg; provided by Sigma-Aldrich, FR) dissolved in a 1:1 mixture of 0.9% NaCl with 100% ethanol. Control mice received a 1:1 mixture of 0.9% NaCl with 100% ethanol or a saline solution using the same technique. Animals were sacrificed 5 days after TNBS administration. The anti-inflammatory effects of compound 17 were tested by administering the compound once daily by subcutaneous injection, starting one day before colitis induction. Macroscopic, histology and biologic assessments of colitis were performed blindly by two investigators.\nThe colon of each mouse was examined under a dissecting microscope (magnification, ×5) to evaluate the macroscopic lesions according to the established so-called Wallace criteria. The Wallace score rates macroscopic lesions on a scale from 0 to 10 based on features reflecting inflammation, such as hyperemia, thickening of the bowel, and extent of ulceration (Wallace, J. L. et al. Gastroenterology 96(1):29-36 (1989)). A colon specimen located 2 cm above the anal canal was cut into three parts, one of which was fixed in 4% paraformaldehyde and embedded in paraffin. Sections stained with May-Grunwald-Giemsa were examined blindly by two investigators and scored according to the so-called Ameho criteria (Ameho, C. K. et al. Gut 41(4):487-493 (1997)). This grading on a scale from 0 to 6 takes into account the degree of inflammation infiltrate, the presence of erosion, ulceration, or necrosis, and the depth and surface extension of lesions.\nMice receiving TNBS injections had severe lesions five days after colitis induction, showing necrosis of the colon and leading to mortality in 70% of the mice. TNBS-induced colitis was characterized by hyperemia and extensive area of ulceration. These lesions were characterized by neutrophilic infiltration extending to the mucosa deep into the muscular layer. […]"}, "DSS-induced colitis": {"test_system": "DSS-induced colitis", "test": "Dextran sulfate sodium (DSS) colitis induction model", "type": "in vivo, mice", "conditions": "preventive treatment, 10^−1 mg/kg/d, 5% DSS for seven days", "method": "Mice were fed 5% DSS (molecular weight 30-40 kDa) for seven days. DSS was dissolved in sterile distilled water and given ad libitum throughout the experiment. Stool consistency, occult blood or the presence of macroscopic rectal bleeding gross were determined daily and blindly by two experiment investigators, as described previously (Hartmann et al., J Pharmacol Exp Ther., 292(1):22-30 (2000)). […] Bleeding was scored 0 point for no blood in hemoccult, 2 points for positive hemoccult, and 4 points for gross bleeding from the rectum. These scores were added, resulting in a total clinical score ranging from 0 (healthy) to 8 (maximal activity of colitis). […] For cell infiltration of inflammatory cells, rare inflammatory cells in the lamina propria were counted as 0; increased numbers of inflammatory cells, including neutrophils in the lamina propria as 1; confluence of inflammatory cells, extending into the submucosa as 2; and a score of 3 was given for transmural extension of the inflammatory cell infiltrate. For epithelial damage, absence of mucosal damage was counted as 0, discrete focal lymphoepithelial lesions were counted as 1, mucosal erosion/ulceration was counted as 2, and a score of 3 was given for extensive mucosal damage and extension through deeper structures of the bowel wall. […]"}}, "data": [{"smiles": "NC(=O)CCCN(CCCC1CCCCC1)C(=O)Nc1ccccc1", "note": "[Compound 17, 4-[1-(3-cyclohexylpropyl)-3-phenylureido]butyramide]", "values": [{"measurement": "Ameho score (histology, scale 0 to 6)", "setting": "TNBS-induced colitis; 10^−1 mg/kg/d subcutaneously once daily, starting one day before colitis induction, five days after TNBS administration, untreated TNBS mice 5.3±0.15", "value": "3.9±0.62"}, {"measurement": "Wallace score (macroscopic lesions, scale 0 to 10)", "setting": "TNBS-induced colitis; 10^−1 mg/kg/d subcutaneously once daily, starting one day before colitis induction, five days after TNBS administration, untreated TNBS mice 7.0±0.37", "value": "3.8±0.89"}, {"measurement": "mortality rates", "setting": "TNBS-induced colitis; 10^−1 mg/kg/d subcutaneously, TNBS-induced colitis, mortality in 70% of untreated TNBS mice", "value": "not associated with a significant improvement of mortality rates"}, {"measurement": "scores for clinical parameters (stool consistency + bleeding, 0 to 8)", "setting": "DSS-induced colitis; untreated 3.7±0.14, P=0.003", "value": "2.8±0.13"}, {"measurement": "histologic score (0 to 6)", "setting": "DSS-induced colitis; untreated 5.8±0.13, P=0.001", "value": "3.9±0.39"}]}]}
